# In ChEMBL document CHEMBL5512603, “Development of de-novo coronavirus 3-chymotrypsin-like protease (3CLpro) inhibitors since COVID-19 outbreak: A strategy to tackle challenges of persistent virus infection” (Eur J Med Chem, 2024):
# What was measured:
# [1] = target: T1, Replicase polyprotein 1ab (Severe acute respiratory syndrome coronavirus 2, UniProt P0DTD1); assay: Inhibition of 2019-nCoV-2 3CLp using fluorescent substrate by FRET assay
# [2] = Cytotoxicity against African green monkey Vero E6 cells; assay type: toxicity, cell-based, Vero C1008; settings: chlorocebus sabaeus
# [3] = target: T1, Replicase polyprotein 1ab; assay: Inhibition of SARS-CoV-2 3CLp by mass spectrometry
# [4] = target: T1, Replicase polyprotein 1ab; assay: Inhibition of SARS-CoV-2 3CLp
# [5] = target: Protein cereblon/Replicase polyprotein 1ab (Severe acute respiratory syndrome coronavirus 2, UniProt P0DTD1+Q96SW2); assay: PROTAC activity at SARS-CoV-2 Main protease/CRBN E3 ligase (unknown origin)
# Chain of Protein cereblon/Replicase polyprotein 1ab (Q96SW2 whole entry, other chains not shown): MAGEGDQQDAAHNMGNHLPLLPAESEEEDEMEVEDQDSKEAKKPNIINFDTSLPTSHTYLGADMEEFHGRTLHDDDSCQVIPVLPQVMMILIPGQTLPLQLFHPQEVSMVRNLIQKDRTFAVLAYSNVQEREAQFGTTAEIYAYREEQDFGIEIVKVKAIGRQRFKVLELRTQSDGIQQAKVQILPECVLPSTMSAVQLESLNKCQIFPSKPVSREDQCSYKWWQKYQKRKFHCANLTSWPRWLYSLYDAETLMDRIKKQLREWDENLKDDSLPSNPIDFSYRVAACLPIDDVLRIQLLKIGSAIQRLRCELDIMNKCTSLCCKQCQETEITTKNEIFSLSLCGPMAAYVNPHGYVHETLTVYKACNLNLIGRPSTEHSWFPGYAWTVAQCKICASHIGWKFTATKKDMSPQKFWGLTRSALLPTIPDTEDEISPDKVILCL
# [6] = target: T1, Replicase polyprotein 1ab; assay: Inhibition of SARS-CoV-2 3CLp using fluorescent substrate by FRET assay
# [7] = target: T1, Replicase polyprotein 1ab; assay: Inhibition of SARS-CoV-2 recombinant main protease; assay type: single protein
structure (smiles),measurement,setting,value
CC(C)(C)NC(=O)[C@@H](c1cccnc1)N(C(=O)c1c[nH]cn1)c1ccc(C(C)(C)C)cc1,IC50,[1],960 nM
same,CC50,[2],129000 nM
Cc1cncc(-n2c(=O)nc(Nc3cc4cn(C)nc4cc3Cl)n(Cc3cc(C#N)c(F)cc3C)c2=O)c1,IC50,[3],35 nM
C[C@H](NC(=O)[C@@H](c1cccnc1)N(C(=O)c1ccco1)c1ccc(-c2ccccc2)cc1)c1ccccc1,IC50,[1],660 nM
same,CC50,[2],> 200000 nM
Cn1cc2cc(/N=c3\[nH]c(=O)n(Cc4cn(CCCCC(=O)Nc5cccc6c5C(=O)N(C5CCC(=O)NC5=O)C6)nn4)c(=O)n3Cc3cc(F)c(F)cc3F)c(Cl)cc2n1 (stereo unspecified),IC50,[4],< 100 nM
same,EC50,[5],< 100 nM
C[C@H](NC(=O)[C@@H](c1cccnc1)N(C(=O)CCl)c1ccc(-c2ccccc2)cc1)c1ccccc1,IC50,[6],50 nM
O=C(O)c1ccc(Nc2nc(=O)n(Cc3ccc[nH]c3=O)c(=O)n2Cc2cc(F)c(F)c(F)c2)cc1,IC50,[3],< 1000 nM
COc1cc(Cl)cc(-c2cc(-c3c[nH]c(=O)[nH]c3=O)cn(-c3cccnc3)c2=O)c1,IC50,[7],1000 nM
Cn1cc2cc(/N=c3\[nH]c(=O)n(Cc4cn(CCOCC(=O)Nc5cccc6c5C(=O)N(C5CCC(=O)NC5=O)C6)nn4)c(=O)n3Cc3cc(F)c(F)cc3F)c(Cl)cc2n1 (stereo unspecified),IC50,[4],> 100 nM
same,EC50,[5],< 100 nM
O=c1[nH]cc(-c2cc(-c3cc(Cl)cc(COc4ccccc4)c3)c(=O)n(-c3cccnc3)c2)c(=O)[nH]1,IC50,[7],128 nM
O=c1[nH]cc(-c2cc(-c3cc(Cl)cc(COc4c(F)cccc4F)c3)c(=O)n(-c3cccnc3)c2)c(=O)[nH]1,IC50,[7],36 nM
Cn1cc2cc(/N=c3\[nH]c(=O)n(Cc4cn(CCCCCC(=O)Nc5cccc6c5C(=O)N(C5CCC(=O)NC5=O)C6)nn4)c(=O)n3Cc3cc(F)c(F)cc3F)c(Cl)cc2n1 (stereo unspecified),IC50,[4],< 100 nM
same,EC50,[5],< 100 nM
Cn1cc2cc(/N=c3\[nH]c(=O)n(Cc4cn(CCCCCCC(=O)Nc5cccc6c5C(=O)N(C5CCC(=O)NC5=O)C6)nn4)c(=O)n3Cc3cc(F)c(F)cc3F)c(Cl)cc2n1 (stereo unspecified),IC50,[4],> 100 nM
same,EC50,[5],< 100 nM
CC(C)COc1cc(Cl)cc(-c2cc(-c3c[nH]c(=O)[nH]c3=O)cn(-c3cccnc3)c2=O)c1,IC50,[7],190 nM
CCn1nnnc1Cn1c(=O)[nH]/c(=N\c2cc3cn(C)nc3cc2Cl)n(Cc2cc(F)c(F)cc2F)c1=O,IC50,[1],160 nM
Cn1cc2cc(/N=c3\[nH]c(=O)n(Cc4cn(CCOCCOCC(=O)Nc5cccc6c5C(=O)N(C5CCC(=O)NC5=O)C6=O)nn4)c(=O)n3Cc3cc(F)c(F)cc3F)c(Cl)cc2n1 (stereo unspecified),IC50,[4],< 100 nM
same,EC50,[5],< 100 nM
Cn1cc2cc(/N=c3\[nH]c(=O)n(Cc4cn(CCCC(=O)Nc5cccc6c5C(=O)N(C5CCC(=O)NC5=O)C6)nn4)c(=O)n3Cc3cc(F)c(F)cc3F)c(Cl)cc2n1 (stereo unspecified),IC50,[4],> 100 nM
same,EC50,[5],< 100 nM
O=c1[nH]cc(-c2cc(-c3cc(Cl)cc(OCCc4ccccc4)c3)c(=O)n(-c3cccnc3)c2)c(=O)[nH]1,IC50,[7],37 nM
Cn1cc2cc(/N=c3\[nH]c(=O)n(Cc4cn(CCCCCCC(=O)Nc5cccc6c5C(=O)N(C5CCC(=O)NC5=O)C6=O)nn4)c(=O)n3Cc3cc(F)c(F)cc3F)c(Cl)cc2n1 (stereo unspecified),IC50,[4],< 100 nM
same,EC50,[5],> 100 nM
CC(=O)NCCn1cc2cc(Nc3nc(=O)n(Cc4ccc[nH]c4=O)c(=O)n3Cc3cc(F)c(F)c(F)c3)c(Cl)cc2n1,IC50,[3],< 1000 nM
Cn1cc2cc(/N=c3\[nH]c(=O)n(Cc4cn(CCOCCOCC(=O)Nc5cccc6c5C(=O)N(C5CCC(=O)NC5=O)C6)nn4)c(=O)n3Cc3cc(F)c(F)cc3F)c(Cl)cc2n1 (stereo unspecified),IC50,[4],< 100 nM
same,EC50,[5],< 100 nM
Cn1cnc(Cn2c(=O)cc(Nc3cc4cn(C)nc4cc3OC(F)(F)F)n(Cc3cc(F)c(F)cc3F)c2=O)n1,IC50,[3],10 nM
O=C1c2c(O)cc(O)c([Se][Se]c3c(O)cc(O)c4c3OC(c3cc(O)c(O)c(O)c3)C(O)C4=O)c2CC(c2cc(O)c(O)c(O)c2)C1O (stereo unspecified),IC50,[6],810 nM
CC(C)(C)c1ccc(N(C(=O)c2ccco2)[C@@H](C(=O)NC2CCCC2)c2cccnc2)cc1,IC50,[1],2510 nM
same,CC50,[2],101000 nM
CCn1nncc1Cn1c(=O)[nH]/c(=N\c2cc3cn(C)nc3cc2Cl)n(Cc2cc(F)c(F)cc2F)c1=O,IC50,[1],123 nM
Cn1cc2cc(/N=c3\[nH]c(=O)n(Cc4cn(CCOCCOCCOCC(=O)Nc5cccc6c5C(=O)N(C5CCC(=O)NC5=O)C6)nn4)c(=O)n3Cc3cc(F)c(F)cc3F)c(Cl)cc2n1 (stereo unspecified),IC50,[4],> 100 nM
same,EC50,[5],< 100 nM
O=c1[nH]cccc1Cn1c(=O)nc(Nc2cc3cn(C4CCOCC4)nc3cc2Cl)n(Cc2cc(F)c(F)c(F)c2)c1=O,IC50,[3],< 1000 nM
Cn1cc2cc(/N=c3\[nH]c(=O)n(Cc4cn(CCCCC(=O)Nc5cccc6c5C(=O)N(C5CCC(=O)NC5=O)C6=O)nn4)c(=O)n3Cc3cc(F)c(F)cc3F)c(Cl)cc2n1 (stereo unspecified),IC50,[4],< 100 nM
same,EC50,[5],< 100 nM
Cc1cc(Cn2c(Nc3cc4cn(C)nc4cc3Cl)cc(=O)n(Cc3ncn(C)n3)c2=O)c(F)cc1F,IC50,[3],12 nM
CC(=O)Nc1nc2cc(Cl)c(Nc3nc(=O)n(Cc4ncn(C)n4)c(=O)n3Cc3cc(F)c(F)c(Cl)c3)cc2s1,IC50,[3],< 1000 nM
CC(C)(C)c1ccc(N(C(=O)c2ccco2)[C@@H](C(=O)NC2CC2)c2cccnc2)cc1,IC50,[1],3860 nM
same,CC50,[2],52800 nM
Cn1cc2cc(/N=c3\[nH]c(=O)n(Cc4cn(CCOCC(=O)Nc5cccc6c5C(=O)N(C5CCC(=O)NC5=O)C6=O)nn4)c(=O)n3Cc3cc(F)c(F)cc3F)c(Cl)cc2n1 (stereo unspecified),IC50,[4],> 100 nM
same,EC50,[5],< 100 nM
Cn1cc2cc(/N=c3\[nH]c(=O)n(Cc4cn(CCCC(=O)Nc5cccc6c5C(=O)N(C5CCC(=O)NC5=O)C6=O)nn4)c(=O)n3Cc3cc(F)c(F)cc3F)c(Cl)cc2n1 (stereo unspecified),IC50,[4],< 100 nM
same,EC50,[5],< 100 nM
COCCCc1cc(Cl)cc(-c2cc(-c3c[nH]c(=O)[nH]c3=O)cn(-c3cccnc3)c2=O)c1,IC50,[7],25 nM
Cn1cc2cc(/N=c3\[nH]c(=O)n(Cc4nnn[nH]4)c(=O)n3Cc3cc(F)c(F)cc3F)c(Cl)cc2n1,IC50,[1],120 nM
CN(C)CCn1cc2cc(Nc3nc(=O)n(Cc4ccc[nH]c4=O)c(=O)n3Cc3cc(F)c(F)c(F)c3)c(Cl)cc2n1,IC50,[3],< 1000 nM
Cn1cc2cc(/N=c3\[nH]c(=O)n(Cc4cn(CCC(=O)Nc5cccc6c5C(=O)N(C5CCC(=O)NC5=O)C6)nn4)c(=O)n3Cc3cc(F)c(F)cc3F)c(Cl)cc2n1 (stereo unspecified),IC50,[4],> 100 nM
same,EC50,[5],> 100 nM
Cn1cc2cc(/N=c3\[nH]c(=O)n(Cc4cn(CCCCCC(=O)Nc5cccc6c5C(=O)N(C5CCC(=O)NC5=O)C6=O)nn4)c(=O)n3Cc3cc(F)c(F)cc3F)c(Cl)cc2n1 (stereo unspecified),IC50,[4],< 100 nM
same,EC50,[5],< 100 nM
C[C@H](NC(=O)[C@@H](c1cccnc1)N(C(=O)c1ccco1)c1ccc(C(C)(C)C)cc1)c1ccccc1,IC50,[1],5700 nM
Cc1cccc(OCc2cc(Cl)cc(-c3cc(-c4c[nH]c(=O)[nH]c4=O)cn(-c4cccnc4)c3=O)c2)c1,IC50,[7],110 nM
O=c1[nH]cc(-c2cc(-c3cc(Cl)cc(COc4cccc(F)c4)c3)c(=O)n(-c3cccnc3)c2)c(=O)[nH]1,IC50,[7],37 nM
Cn1cc2cc(Nc3nc(=O)n(Cc4ccc[nH]c4=O)c(=O)n3Cc3cc(F)c(F)c(F)c3)c(Cl)cc2n1,IC50,[3],< 1000 nM
CCn1cc2cc(Nc3nc(=O)n(-c4cncc(Cl)c4)c(=O)n3Cc3cc(C#N)ccc3Cl)ccc2n1,IC50,[3],355 nM
Cn1cnc(Cn2c(=O)cc(Nc3cc4cn(C)nc4cc3C(F)(F)F)n(Cc3cc(Cl)c(Cl)cc3F)c2=O)n1,IC50,[3],14 nM
COc1ccc(Nc2nc(=O)n(Cc3ccc[nH]c3=O)c(=O)n2Cc2cc(F)c(F)c(F)c2)cc1,IC50,[3],< 1000 nM
Cn1cnc(Cn2c(=O)cc(Nc3cc4cn(C)nc4cc3F)n(Cc3cc(Cl)c(F)cc3F)c2=O)n1,IC50,[3],18 nM
Cc1ccccc1OCc1cc(Cl)cc(-c2cc(-c3c[nH]c(=O)[nH]c3=O)cn(-c3cccnc3)c2=O)c1,IC50,[7],100 nM
Cn1cc2cc(/N=c3\[nH]c(=O)n(Cc4cn(CCCCCCCC(=O)Nc5cccc6c5C(=O)N(C5CCC(=O)NC5=O)C6=O)nn4)c(=O)n3Cc3cc(F)c(F)cc3F)c(Cl)cc2n1 (stereo unspecified),IC50,[4],> 100 nM
same,EC50,[5],> 100 nM
C[C@H](NC(=O)[C@@H](c1cccnc1)N(C(=O)c1ccco1)c1ccc(-n2cccc2)cc1)c1ccccc1,IC50,[1],940 nM
same,CC50,[2],> 200000 nM
CCn1cc2cc(Nc3nc(=O)n(-c4cncc(Cl)c4)c(=O)n3Cc3cc(C#N)ccc3C)ccc2n1,IC50,[3],234 nM
Cn1cc2cc(/N=c3\[nH]c(=O)n(Cc4cn(CCC(=O)Nc5cccc6c5C(=O)N(C5CCC(=O)NC5=O)C6=O)nn4)c(=O)n3Cc3cc(F)c(F)cc3F)c(Cl)cc2n1 (stereo unspecified),IC50,[4],> 100 nM
same,EC50,[5],> 100 nM
Cc1nc2cc(Br)c(Nc3nc(=O)n(Cc4ncn(C)n4)c(=O)n3Cc3cc(F)c(F)c(F)c3)cc2s1,IC50,[3],< 1000 nM
Cn1cnc(Cn2c(=O)nc(Nc3cc4sc(N)nc4cc3Cl)n(Cc3cc(F)c(F)c(Cl)c3)c2=O)n1,IC50,[3],< 1000 nM
O=c1[nH]cc(-c2cc(-c3cc(Cl)cc(COc4ccccc4F)c3)c(=O)n(-c3cccnc3)c2)c(=O)[nH]1,IC50,[7],24 nM
N#Cc1ccccc1-c1cc(-c2cccc(Cl)c2)cn(-c2cccnc2)c1=O,IC50,[7],9990 nM
Cn1cnc(Cn2c(=O)cc(Nc3cc4cn(C)nc4cc3Cl)n(Cc3cc(F)c(F)cc3F)c2=O)n1,IC50,[3],10 nM
CC(C)(C)c1ccc(N(C(=O)c2ccco2)[C@@H](C(=O)NC2CCCCC2)c2cccnc2)cc1,IC50,[1],2390 nM
same,CC50,[2],18200 nM
Cn1cc2cc(/N=c3\[nH]c(=O)n(Cc4cn(CCCCCCCC(=O)Nc5cccc6c5C(=O)N(C5CCC(=O)NC5=O)C6)nn4)c(=O)n3Cc3cc(F)c(F)cc3F)c(Cl)cc2n1 (stereo unspecified),IC50,[4],> 100 nM
same,EC50,[5],> 100 nM
CC(C)(O)Cn1cc2cc(Nc3nc(=O)n(Cc4ccc[nH]c4=O)c(=O)n3Cc3cc(F)c(F)c(F)c3)c(Cl)cc2n1,IC50,[3],< 1000 nM
COc1ccc(Nc2nc(=O)n(Cc3ccc[nH]c3=O)c(=O)n2Cc2cc(F)c(F)c(F)c2)c(OC)c1,IC50,[3],< 1000 nM
O=c1[nH]cc(-c2cc(-c3cc(Cl)cc(COc4ccccc4Cl)c3)c(=O)n(-c3cccnc3)c2)c(=O)[nH]1,IC50,[7],18 nM
CCOC(=O)/C=C/C(=O)N(c1ccc(-c2ccccc2)cc1)[C@@H](C(=O)N[C@@H](C)c1ccccc1)c1cccnc1,IC50,[6],> 20000 nM
C=C(Cl)C(=O)N(c1ccc(-c2ccccc2)cc1)[C@@H](C(=O)N[C@@H](C)c1ccccc1)c1cccnc1,IC50,[6],4220 nM
Cn1cnc(Cn2c(=O)nc(Nc3cc4sc(NCC(F)F)nc4cc3Cl)n(Cc3cc(F)c(F)c(F)c3)c2=O)n1,IC50,[3],< 1000 nM
